Data from PMC4823954, “From fighting depression to conquering tumors: a novel tricyclic thiazepine compound as a tubulin polymerization inhibitor” (Cell Death & Disease, 2016).

Legend:
Assay in all cases: KINOMEscan
Format in all cases: binding
Conditions in all cases: read-out: % Ctrl
CSNK1A1L = molecular target: T1, CSNK1A1L (Homo sapiens, UniProt Q8N752)
T1 construct: purchased DiscoveRx KINOMEscan
Procedure: (§1) The binding assay for 442 non-mutant kinases was performed using KINOMEscan (DiscoveRx Corporation, Fremont, CA, USA) as reported previously.[58], [59] TBPT was screened at concentrations of 5 and 10 μM to identify the affected kinases. KINOMEscan is based on a competition reaction that quantitatively measures the ability of a test compound to compete with an active site-directed ligand for binding to the kinase active site. […] After the assay plates were incubated with shaking for 1 h, the liganded beads were washed with washing buffer (1 × PBS and 0.05% Tween 20). Then, the beads were re-suspended in elution buffer (1 × PBS, 0.05% Tween 20, and 0.5 μM ligand) and incubated with shaking for 30 min. The kinase concentration in the eluates was measured via qPCR. The results are represented as ‘%Ctrl', which was calculated using the following formula: (test compound signal–positive control signal)/(DMSO signal–positive control signal) × 100%. A lower % Ctrl indicates stronger binding to the kinase active site.

TRKB = molecular target: T2, TRKB (Homo sapiens, UniProt Q16620)
T2 construct: purchased DiscoveRx KINOMEscan
Procedure: as §1

CSF1R = molecular target: T3, CSF1R (Homo sapiens, UniProt P07333)
T3 construct: purchased DiscoveRx KINOMEscan
Procedure: as §1

TEC = molecular target: T4, TEC (Homo sapiens, UniProt P42680)
T4 construct: purchased DiscoveRx KINOMEscan
Procedure: as §1

KIT(D816V) = molecular target: T5, KIT(D816V) (Homo sapiens, UniProt P10721, D816V)
T5 construct: purchased DiscoveRx KINOMEscan
Procedure: as §1

PDGFRA = molecular target: T6, PDGFRA (Homo sapiens, UniProt P16234)
T6 construct: purchased DiscoveRx KINOMEscan
Procedure: as §1

TLK1 = molecular target: T7, TLK1 (Homo sapiens, UniProt Q9UKI8)
T7 construct: purchased DiscoveRx KINOMEscan
Procedure: as §1

[1] = molecular target: T8, ABL1(F317L)-nonphosphorylated (Homo sapiens, UniProt P00519, F317L)
T8 construct: purchased DiscoveRx KINOMEscan
Procedure: as §1

TNK1 = molecular target: T9, TNK1 (Homo sapiens, UniProt Q13470)
T9 construct: purchased DiscoveRx KINOMEscan
Procedure: as §1

PIM2 = molecular target: T10, PIM2 (Homo sapiens, UniProt Q9P1W9)
T10 construct: purchased DiscoveRx KINOMEscan
Procedure: as §1

SgK110 = molecular target: T11, SgK110 (Homo sapiens, UniProt P0C264)
T11 construct: purchased DiscoveRx KINOMEscan
Procedure: as §1

SIK2 = molecular target: T12, SIK2 (Homo sapiens, UniProt Q9H0K1)
T12 construct: purchased DiscoveRx KINOMEscan
Procedure: as §1

EGFR(G719S) = molecular target: T13, EGFR(G719S) (Homo sapiens, UniProt P00533, G719S)
T13 construct: purchased DiscoveRx KINOMEscan
Procedure: as §1

EPHA7 = molecular target: T14, EPHA7 (Homo sapiens, UniProt Q15375)
T14 construct: purchased DiscoveRx KINOMEscan
Procedure: as §1

CSNK1A1 = molecular target: T15, CSNK1A1 (Homo sapiens, UniProt P48729)
T15 construct: purchased DiscoveRx KINOMEscan
Procedure: as §1

PKN2 = molecular target: T16, PKN2 (Homo sapiens, UniProt Q16513)
T16 construct: purchased DiscoveRx KINOMEscan
Procedure: as §1

[2] = molecular target: T17, ABL1(T315I)-nonphosphorylated (Homo sapiens, UniProt P00519, T315I)
T17 construct: purchased DiscoveRx KINOMEscan
Procedure: as §1

[3] = molecular target: T18, TYK2(JH2domain-pseudokinase) (Homo sapiens, UniProt P29597)
T18 construct: TYK2(JH2domain-pseudokinase); purchased DiscoveRx KINOMEscan
Procedure: as §1

GRK1 = molecular target: T19, GRK1 (Homo sapiens, UniProt Q15835)
T19 construct: purchased DiscoveRx KINOMEscan
Procedure: as §1

RAF1 = molecular target: T20, RAF1 (Homo sapiens, UniProt P04049)
T20 construct: purchased DiscoveRx KINOMEscan
Procedure: as §1

CDK4-cyclinD1 = molecular target: T21, CDK4-cyclinD1 (Homo sapiens, UniProt P11802)
T21 construct: purchased DiscoveRx KINOMEscan
Procedure: as §1

YANK2 = molecular target: T22, YANK2 (Homo sapiens, UniProt Q9NY57)
T22 construct: purchased DiscoveRx KINOMEscan
Procedure: as §1

LTK = molecular target: T23, LTK (Homo sapiens, UniProt P29376)
T23 construct: purchased DiscoveRx KINOMEscan
Procedure: as §1

CDK7 = molecular target: T24, CDK7 (Homo sapiens, UniProt P50613)
T24 construct: purchased DiscoveRx KINOMEscan
Procedure: as §1

INSRR = molecular target: T25, INSRR (Homo sapiens, UniProt P14616)
T25 construct: purchased DiscoveRx KINOMEscan
Procedure: as §1

DCAMKL3 = molecular target: T26, DCAMKL3 (Homo sapiens, UniProt Q9C098)
T26 construct: purchased DiscoveRx KINOMEscan
Procedure: as §1

EPHA5 = molecular target: T27, EPHA5 (Homo sapiens, UniProt P54756)
T27 construct: purchased DiscoveRx KINOMEscan
Procedure: as §1

PAK7 = molecular target: T28, PAK7 (Homo sapiens, UniProt Q9P286)
T28 construct: purchased DiscoveRx KINOMEscan
Procedure: as §1

MARK2 = molecular target: T29, MARK2 (Homo sapiens, UniProt Q7KZI7)
T29 construct: purchased DiscoveRx KINOMEscan
Procedure: as §1

PLK2 = molecular target: T30, PLK2 (Homo sapiens, UniProt Q9NYY3)
T30 construct: purchased DiscoveRx KINOMEscan
Procedure: as §1

T23 sequence (P29376 17-864): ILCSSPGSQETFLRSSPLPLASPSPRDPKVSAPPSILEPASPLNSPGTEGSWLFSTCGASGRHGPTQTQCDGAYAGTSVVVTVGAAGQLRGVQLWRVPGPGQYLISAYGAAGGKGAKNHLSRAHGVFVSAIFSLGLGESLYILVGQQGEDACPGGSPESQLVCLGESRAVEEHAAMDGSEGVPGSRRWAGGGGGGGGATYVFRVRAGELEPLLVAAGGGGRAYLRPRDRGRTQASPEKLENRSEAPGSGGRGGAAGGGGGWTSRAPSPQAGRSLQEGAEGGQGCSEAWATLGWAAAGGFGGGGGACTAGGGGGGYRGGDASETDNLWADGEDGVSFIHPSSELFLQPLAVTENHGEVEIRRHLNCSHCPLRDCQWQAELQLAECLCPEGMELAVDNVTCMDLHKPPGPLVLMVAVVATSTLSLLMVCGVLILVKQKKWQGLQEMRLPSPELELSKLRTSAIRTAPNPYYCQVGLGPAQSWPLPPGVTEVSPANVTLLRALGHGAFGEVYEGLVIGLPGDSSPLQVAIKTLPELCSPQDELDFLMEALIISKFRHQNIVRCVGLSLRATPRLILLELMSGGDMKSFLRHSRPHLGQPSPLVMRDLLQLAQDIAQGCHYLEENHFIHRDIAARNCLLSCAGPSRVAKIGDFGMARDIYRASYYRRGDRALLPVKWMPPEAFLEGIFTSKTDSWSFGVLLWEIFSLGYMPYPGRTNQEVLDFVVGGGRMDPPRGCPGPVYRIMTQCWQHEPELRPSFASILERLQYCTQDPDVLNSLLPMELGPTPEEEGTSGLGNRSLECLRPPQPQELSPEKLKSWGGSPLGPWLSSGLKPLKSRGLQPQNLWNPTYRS
T22 sequence (Q9NY57 whole entry): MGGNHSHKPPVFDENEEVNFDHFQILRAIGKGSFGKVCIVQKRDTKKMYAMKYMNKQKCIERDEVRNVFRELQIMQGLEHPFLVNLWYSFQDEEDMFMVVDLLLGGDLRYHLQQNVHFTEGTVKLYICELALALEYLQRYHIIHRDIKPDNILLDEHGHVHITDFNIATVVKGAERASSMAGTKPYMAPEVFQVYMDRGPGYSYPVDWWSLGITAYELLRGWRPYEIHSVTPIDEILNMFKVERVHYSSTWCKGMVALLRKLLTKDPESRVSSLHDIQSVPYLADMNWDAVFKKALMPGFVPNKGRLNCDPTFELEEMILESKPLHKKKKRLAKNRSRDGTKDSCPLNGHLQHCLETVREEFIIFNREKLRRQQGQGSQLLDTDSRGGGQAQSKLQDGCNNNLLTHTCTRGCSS
T5 sequence (P10721 26-976 D816V): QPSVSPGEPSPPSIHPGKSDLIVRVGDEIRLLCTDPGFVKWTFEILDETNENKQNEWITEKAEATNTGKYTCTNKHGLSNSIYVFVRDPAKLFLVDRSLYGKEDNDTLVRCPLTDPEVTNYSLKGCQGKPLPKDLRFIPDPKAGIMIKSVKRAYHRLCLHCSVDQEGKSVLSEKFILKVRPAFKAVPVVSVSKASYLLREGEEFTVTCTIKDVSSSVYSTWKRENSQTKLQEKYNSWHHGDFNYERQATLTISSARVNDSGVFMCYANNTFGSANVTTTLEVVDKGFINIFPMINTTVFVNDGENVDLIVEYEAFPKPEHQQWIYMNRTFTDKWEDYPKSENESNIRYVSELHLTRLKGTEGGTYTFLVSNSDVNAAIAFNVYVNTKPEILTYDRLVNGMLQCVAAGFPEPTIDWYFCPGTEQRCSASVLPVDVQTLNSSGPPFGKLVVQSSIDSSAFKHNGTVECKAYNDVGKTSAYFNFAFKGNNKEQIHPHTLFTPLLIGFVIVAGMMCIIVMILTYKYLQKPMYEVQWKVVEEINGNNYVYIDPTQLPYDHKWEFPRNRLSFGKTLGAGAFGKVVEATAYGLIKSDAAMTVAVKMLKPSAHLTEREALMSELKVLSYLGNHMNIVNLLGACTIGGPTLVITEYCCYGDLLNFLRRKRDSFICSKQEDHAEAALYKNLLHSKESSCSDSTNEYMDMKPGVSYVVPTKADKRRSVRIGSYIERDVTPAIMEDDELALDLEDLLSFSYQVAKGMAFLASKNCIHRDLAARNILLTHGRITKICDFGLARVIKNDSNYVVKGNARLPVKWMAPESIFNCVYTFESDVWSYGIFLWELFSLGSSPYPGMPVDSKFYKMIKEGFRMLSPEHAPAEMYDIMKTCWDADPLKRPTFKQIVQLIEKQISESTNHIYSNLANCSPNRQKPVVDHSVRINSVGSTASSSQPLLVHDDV
T6 sequence (P16234 24-1089): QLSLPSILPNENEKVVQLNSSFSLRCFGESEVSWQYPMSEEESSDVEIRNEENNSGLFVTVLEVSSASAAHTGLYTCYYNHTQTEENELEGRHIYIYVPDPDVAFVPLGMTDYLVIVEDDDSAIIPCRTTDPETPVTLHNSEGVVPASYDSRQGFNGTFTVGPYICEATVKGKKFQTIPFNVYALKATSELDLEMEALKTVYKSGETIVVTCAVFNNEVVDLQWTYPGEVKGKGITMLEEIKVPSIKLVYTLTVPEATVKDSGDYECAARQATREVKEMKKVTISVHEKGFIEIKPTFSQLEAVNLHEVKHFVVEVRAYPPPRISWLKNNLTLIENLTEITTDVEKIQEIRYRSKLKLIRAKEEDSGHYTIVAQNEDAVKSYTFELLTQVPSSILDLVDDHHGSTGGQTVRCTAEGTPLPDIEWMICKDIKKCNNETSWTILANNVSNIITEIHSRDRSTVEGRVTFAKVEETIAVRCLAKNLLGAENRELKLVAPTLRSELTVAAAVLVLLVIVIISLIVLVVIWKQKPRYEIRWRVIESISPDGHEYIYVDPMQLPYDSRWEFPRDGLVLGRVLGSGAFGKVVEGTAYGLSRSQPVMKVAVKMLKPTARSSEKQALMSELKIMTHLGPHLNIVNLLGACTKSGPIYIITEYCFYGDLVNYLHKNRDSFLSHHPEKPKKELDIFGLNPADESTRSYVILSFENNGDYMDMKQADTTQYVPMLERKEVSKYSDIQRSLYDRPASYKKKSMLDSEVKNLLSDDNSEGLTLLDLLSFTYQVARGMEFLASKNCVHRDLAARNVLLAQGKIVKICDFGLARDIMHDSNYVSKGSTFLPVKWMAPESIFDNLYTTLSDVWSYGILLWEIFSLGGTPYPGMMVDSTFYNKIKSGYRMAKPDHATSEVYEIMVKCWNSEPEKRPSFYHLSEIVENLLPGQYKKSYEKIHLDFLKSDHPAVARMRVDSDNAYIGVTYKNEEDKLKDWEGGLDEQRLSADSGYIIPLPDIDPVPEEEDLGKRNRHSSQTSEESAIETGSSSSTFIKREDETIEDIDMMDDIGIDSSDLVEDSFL
T2 sequence (Q16620 32-822): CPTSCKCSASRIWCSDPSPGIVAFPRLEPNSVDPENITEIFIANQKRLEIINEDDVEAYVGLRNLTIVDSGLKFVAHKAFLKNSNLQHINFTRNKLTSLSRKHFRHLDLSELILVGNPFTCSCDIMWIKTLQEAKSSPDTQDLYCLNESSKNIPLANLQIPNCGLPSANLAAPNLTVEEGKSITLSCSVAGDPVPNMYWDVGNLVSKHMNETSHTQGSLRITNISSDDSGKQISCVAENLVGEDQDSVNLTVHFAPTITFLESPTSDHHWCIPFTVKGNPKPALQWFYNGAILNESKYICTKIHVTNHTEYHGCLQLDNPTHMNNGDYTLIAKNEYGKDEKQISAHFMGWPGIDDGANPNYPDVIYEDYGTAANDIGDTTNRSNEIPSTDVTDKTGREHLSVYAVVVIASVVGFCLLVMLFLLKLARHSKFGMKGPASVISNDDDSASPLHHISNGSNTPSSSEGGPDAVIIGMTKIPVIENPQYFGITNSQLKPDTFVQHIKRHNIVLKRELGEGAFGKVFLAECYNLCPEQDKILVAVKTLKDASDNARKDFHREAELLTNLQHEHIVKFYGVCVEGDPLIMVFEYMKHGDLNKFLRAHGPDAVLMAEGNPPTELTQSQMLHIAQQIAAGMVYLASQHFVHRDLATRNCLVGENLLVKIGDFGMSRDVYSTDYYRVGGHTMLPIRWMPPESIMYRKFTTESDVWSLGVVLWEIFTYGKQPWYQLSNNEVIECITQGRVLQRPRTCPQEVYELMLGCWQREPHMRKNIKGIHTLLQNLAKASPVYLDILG
T30 sequence (Q9NYY3 whole entry): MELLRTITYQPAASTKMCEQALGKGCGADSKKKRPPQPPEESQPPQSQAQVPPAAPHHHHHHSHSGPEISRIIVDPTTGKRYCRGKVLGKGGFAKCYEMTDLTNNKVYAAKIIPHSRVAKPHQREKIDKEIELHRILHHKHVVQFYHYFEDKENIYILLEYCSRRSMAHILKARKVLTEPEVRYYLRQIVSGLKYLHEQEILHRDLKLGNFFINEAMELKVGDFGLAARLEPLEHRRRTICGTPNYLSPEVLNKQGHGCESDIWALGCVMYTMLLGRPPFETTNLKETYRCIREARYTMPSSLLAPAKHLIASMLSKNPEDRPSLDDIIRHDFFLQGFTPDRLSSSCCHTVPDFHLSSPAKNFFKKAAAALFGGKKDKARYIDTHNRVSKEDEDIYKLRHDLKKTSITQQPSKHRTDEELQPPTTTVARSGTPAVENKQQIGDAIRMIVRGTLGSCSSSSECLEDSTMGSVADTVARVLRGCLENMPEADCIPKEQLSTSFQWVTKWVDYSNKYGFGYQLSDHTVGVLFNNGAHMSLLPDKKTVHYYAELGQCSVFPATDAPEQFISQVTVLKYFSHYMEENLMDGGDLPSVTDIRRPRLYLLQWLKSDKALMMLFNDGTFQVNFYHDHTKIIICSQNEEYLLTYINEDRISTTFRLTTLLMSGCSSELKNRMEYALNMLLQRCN
T10 sequence (Q9P1W9 whole entry): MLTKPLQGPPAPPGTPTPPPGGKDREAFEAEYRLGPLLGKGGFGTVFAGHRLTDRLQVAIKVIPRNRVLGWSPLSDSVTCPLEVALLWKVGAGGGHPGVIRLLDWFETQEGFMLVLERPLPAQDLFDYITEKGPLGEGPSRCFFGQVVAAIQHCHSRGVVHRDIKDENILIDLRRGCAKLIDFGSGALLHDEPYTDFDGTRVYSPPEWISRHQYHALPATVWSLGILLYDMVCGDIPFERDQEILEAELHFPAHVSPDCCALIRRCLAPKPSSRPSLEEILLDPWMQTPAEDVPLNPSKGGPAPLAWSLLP

Cc1ccc(C2=Nc3cccnc3S(=O)(=O)c3ccccc32)cc1 [TBPT, 6-(p-tolyl)benzo[f] pyrido[2,3-b][1,4] thiazepine 11,11-dioxide]
remaining binding at 5 µM (CSNK1A1L; 5 μM): 100%
remaining binding at 10 µM (CSNK1A1L; 10 μM): 91%
remaining binding at 5 µM (TRKB; 5 μM): 96%
remaining binding at 10 µM (TRKB; 10 μM): 100%
remaining binding at 5 µM (CSF1R; 5 μM): 93%
remaining binding at 10 µM (CSF1R; 10 μM): 100%
remaining binding at 5 µM (TEC; 5 μM): 90%
remaining binding at 10 µM (TEC; 10 μM): 99%
remaining binding at 5 µM (KIT(D816V); 5 μM): 62%
remaining binding at 10 µM (KIT(D816V); 10 μM): 99%
remaining binding at 5 µM (PDGFRA; 5 μM): 100%
remaining binding at 10 µM (PDGFRA; 10 μM): 100%
remaining binding at 5 µM (TLK1; 5 μM): 93%
remaining binding at 10 µM (TLK1; 10 μM): 97%
remaining binding at 5 µM ([1]; 5 μM): 80%
remaining binding at 10 µM ([1]; 10 μM): 100%
remaining binding at 5 µM (TNK1; 5 μM): 100%
remaining binding at 10 µM (TNK1; 10 μM): 97%
remaining binding at 5 µM (PIM2; 5 μM): 100%
remaining binding at 10 µM (PIM2; 10 μM): 100%
remaining binding at 5 µM (SgK110; 5 μM): 100%
remaining binding at 10 µM (SgK110; 10 μM): 100%
remaining binding at 5 µM (SIK2; 5 μM): 84%
remaining binding at 10 µM (SIK2; 10 μM): 90%
remaining binding at 5 µM (EGFR(G719S); 5 μM): 83%
remaining binding at 10 µM (EGFR(G719S); 10 μM): 94%
remaining binding at 5 µM (EPHA7; 5 μM): 93%
remaining binding at 10 µM (EPHA7; 10 μM): 100%
remaining binding at 5 µM (CSNK1A1; 5 μM): 100%
remaining binding at 10 µM (CSNK1A1; 10 μM): 86%
remaining binding at 5 µM (PKN2; 5 μM): 100%
remaining binding at 10 µM (PKN2; 10 μM): 95%
remaining binding at 5 µM ([2]; 5 μM): 100%
remaining binding at 10 µM ([2]; 10 μM): 100%
remaining binding at 5 µM ([3]; 5 μM): 82%
remaining binding at 10 µM ([3]; 10 μM): 100%
remaining binding at 5 µM (GRK1; 5 μM): 100%
remaining binding at 10 µM (GRK1; 10 μM): 100%
remaining binding at 5 µM (RAF1; 5 μM): 100%
remaining binding at 10 µM (RAF1; 10 μM): 91%
remaining binding at 5 µM (CDK4-cyclinD1; 5 μM): 100%
remaining binding at 10 µM (CDK4-cyclinD1; 10 μM): 79%
remaining binding at 5 µM (YANK2; 5 μM): 99%
remaining binding at 10 µM (YANK2; 10 μM): 100%
remaining binding at 5 µM (LTK; 5 μM): 100%
remaining binding at 10 µM (LTK; 10 μM): 100%
remaining binding at 5 µM (CDK7; 5 μM): 83%
remaining binding at 10 µM (CDK7; 10 μM): 100%
remaining binding at 5 µM (INSRR; 5 μM): 100%
remaining binding at 10 µM (INSRR; 10 μM): 100%
remaining binding at 5 µM (DCAMKL3; 5 μM): 100%
remaining binding at 10 µM (DCAMKL3; 10 μM): 79%
remaining binding at 5 µM (EPHA5; 5 μM): 92%
remaining binding at 10 µM (EPHA5; 10 μM): 100%
remaining binding at 5 µM (PAK7; 5 μM): 78%
remaining binding at 10 µM (PAK7; 10 μM): 95%
remaining binding at 5 µM (MARK2; 5 μM): 86%
remaining binding at 10 µM (MARK2; 10 μM): 84%
remaining binding at 5 µM (PLK2; 5 μM): 100%
remaining binding at 10 µM (PLK2; 10 μM): 83%
